Assay results taken from US20250326769A1, “HETEROAROMATIC MACROCYCLIC ETHER CHEMOTHERAPEUTIC AGENTS” (Nuvalent, Inc., priority 2022, published 2025).
pIC50, pKi: −log10 of the molar value.

Experiments:
ROS1 = ROS1 (Homo sapiens (Human), UniProt P08922); assay: Biochemical kinase assay, ROS1-wt; details: apparent inhibitory constant, kinase domain, Morrison equation; read-out: ROS1-wt Ki^app
Procedure: (§1) First, 250 nL of compound dissolved in DMSO (100-fold of the desired concentration) was dispensed into a 384-well plate. A 12.5 μL substrate solution containing ATP (2 mM) and fluorogenic phosphorylation substrate AQT0101 ([…] for ALK and ROS, AssayQuant) or AQT0104 (26 μM for TRKB, AssayQuant) in buffer (50 mM HEPES pH 7.5, […], 0.5 mM EGTA, 10 mM MgCl2) was added and mixed thoroughly. Then, a 12.5 μL kinase solution containing ALK (1.5 nM, Carna, 08-518), ALK I1171N/D1203N (4 nM, SignalChem, custom-made), ROS1 (0.6 nM, Carma, 08-163), ROS1-G2032R (0.5 nM, SignalChem, R14-121BG), or TRKB-wt (1.5 nM, SignalChem, N17-11G) kinase domains in buffer ([…] pH 7.5, 0.01% Brij-[…], 0.4 mg/mL BSA, 0.5 mM EGTA, and 10 mM MgCl2) was added and mixed thoroughly. The plate was sealed and read by SpectraMax Paradigm at λ=485 nm every 2 minutes for 120 minutes at 30° C. Initial rates of reaction (v) were calculated from the change in fluorescence intensity over time during the initial, linear portion of the reaction. Finally, apparent inhibitory constants (Ki^app) were determined from regression of v and I (inhibitor concentration) to Morrison Equation (E=enzyme concentration): […]
(§2) Compound potency can be interpreted by binning Ki^app values against the targets: bin A for high potency, Ki^app<50 nM; bin B for medium potency, 50 nM≤Ki^app<500 nM; and bin C for low potency, Ki^app≥500 nM. […] “nd” means not determined.

ROS1-G2032R = ROS1-G2032R (Homo sapiens (Human), UniProt P08922, G2032R); assay: Biochemical kinase assay, ROS1-G2032R; details: apparent inhibitory constant, kinase domain, Morrison equation; read-out: ROS1-G2032R Ki^app
Procedure: as §1, §2

ALK I1171N/D1203N = ALK I1171N/D1203N (Homo sapiens (Human), UniProt Q9UM73, D1203N/I1171N); assay: Biochemical kinase assay, ALK I1171N/D1203N; details: apparent inhibitory constant, kinase domain, Morrison equation; read-out: ALK-I1171N-D1203N Ki^app
In short: (§3)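 Kinase domains (in enzyme solution: ALK I1171N/D1203N 4 nM, ROS1 0.6 nM, ROS1-G2032R 0.5 nM, TRKB 1.5 nM) were mixed with substrate solution holding 2 mM ATP and 26 μM AQT0101 (ALK, ROS1) or AQT0104 (TRKB). Initial rates from 120-min fluorescence kinetics at 30 °C were fitted to the Morrison equation (Ki^app).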

TRKB-wt = TRKB-wt (Homo sapiens (Human), UniProt Q16620); assay: Biochemical kinase assay, TRKB-wt; details: apparent inhibitory constant, kinase domain, Morrison equation; read-out: TRKB-wt Ki^app
In short: as §3

Ba/F3 EML4-ALK v1 I1171N = Ba/F3 EML4-ALK v1 I1171N (Homo sapiens (Human), UniProt Q9HC35+Q9UM73, I1171N); assay: Ba/F3 cell proliferation assay, EML4-ALK v1 I1171N; assay type: cell-based; details: for pIC50: Ba/F3 stable cells, 72 hours, CellTiter-Glo; for ETV6-TRKB / EML4-ALK v1 I1171N: TRKB selectivity, ratio of Ba/F3 IC50 values
In short: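 Ba/F3 cells stably transformed with retroviral EML4-ALK v1 I1171N, selected by IL-3 withdrawal and puromycin, grown IL-3-free. Compounds added as 3-fold dilution series, 72 h incubation; viability by CellTiter-Glo luminescence. IC50 from percent inhibition by four-parameter logistic fit, binned A/B/C.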

[1] = biological target: Ba/F3 EML4-ALK v1 I1171N/D1203N (Homo sapiens (Human), UniProt Q9HC35+Q9UM73, D1203N/I1171N); assay: Ba/F3 cell proliferation assay, EML4-ALK v1 I1171N/D1203N; assay type: cell-based; details: for pIC50: Ba/F3 stable cells, 72 hours, CellTiter-Glo
In short: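 Viability read by CellTiter-Glo luminescence after 72 h exposure to a 3-fold compound dilution series, with IC50 from four-parameter logistic regression. Cells were Ba/F3 rendered IL-3-independent through retroviral expression of EML4-ALK v1 I1171N/D1203N, puromycin-selected.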

Ba/F3 ETV6-TRKB = Ba/F3 ETV6-TRKB (Homo sapiens, UniProt Q16620); assay: Ba/F3 cell proliferation assay, ETV6-TRKB; assay type: cell-based; details: Ba/F3 stable cells, 72 hours, CellTiter-Glo; read-out: ETV6-TRKB IC50
In short: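 Growth inhibition after 72 h compound exposure (3-fold series) was measured by CellTiter-Glo in IL-3-independent Ba/F3 cells stably expressing ETV6-TRKB. A four-parameter logistic fit of percent inhibition versus concentration gave IC50.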

[2] = TRKB selectivity, ratio of Ba/F3 IC50 values

Sequence of ROS1-G2032R (P08922 1945-2222 G2032R): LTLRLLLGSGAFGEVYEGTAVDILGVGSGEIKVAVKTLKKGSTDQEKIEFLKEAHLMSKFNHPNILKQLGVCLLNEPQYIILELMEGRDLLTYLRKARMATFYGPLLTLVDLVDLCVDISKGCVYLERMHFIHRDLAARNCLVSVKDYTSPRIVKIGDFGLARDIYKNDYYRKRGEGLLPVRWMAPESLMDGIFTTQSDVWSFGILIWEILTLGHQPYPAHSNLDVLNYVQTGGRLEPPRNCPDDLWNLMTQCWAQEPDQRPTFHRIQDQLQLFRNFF
Sequence of Ba/F3 ETV6-TRKB (Q16620 32-822 limits assumed, change not shown): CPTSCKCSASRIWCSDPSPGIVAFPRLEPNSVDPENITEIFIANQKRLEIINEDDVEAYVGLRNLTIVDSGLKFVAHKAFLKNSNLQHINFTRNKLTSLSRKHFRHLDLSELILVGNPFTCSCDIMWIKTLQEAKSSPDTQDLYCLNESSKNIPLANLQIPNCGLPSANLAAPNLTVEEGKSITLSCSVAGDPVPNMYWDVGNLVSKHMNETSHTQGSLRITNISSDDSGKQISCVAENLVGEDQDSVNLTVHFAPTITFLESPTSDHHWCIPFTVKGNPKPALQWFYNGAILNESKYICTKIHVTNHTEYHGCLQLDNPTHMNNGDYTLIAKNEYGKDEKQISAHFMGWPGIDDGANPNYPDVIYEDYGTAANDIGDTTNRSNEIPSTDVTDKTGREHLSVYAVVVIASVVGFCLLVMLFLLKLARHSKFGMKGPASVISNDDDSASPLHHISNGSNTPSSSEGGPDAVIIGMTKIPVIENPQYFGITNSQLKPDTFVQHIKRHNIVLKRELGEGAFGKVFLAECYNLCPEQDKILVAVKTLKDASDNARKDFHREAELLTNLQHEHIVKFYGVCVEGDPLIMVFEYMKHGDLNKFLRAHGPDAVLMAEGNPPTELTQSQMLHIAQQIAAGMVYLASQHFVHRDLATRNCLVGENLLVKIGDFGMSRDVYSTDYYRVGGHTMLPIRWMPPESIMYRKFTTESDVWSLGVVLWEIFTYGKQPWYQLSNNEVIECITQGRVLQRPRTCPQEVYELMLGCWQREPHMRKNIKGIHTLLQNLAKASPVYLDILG
Sequence of TRKB-wt (Q16620 538-807): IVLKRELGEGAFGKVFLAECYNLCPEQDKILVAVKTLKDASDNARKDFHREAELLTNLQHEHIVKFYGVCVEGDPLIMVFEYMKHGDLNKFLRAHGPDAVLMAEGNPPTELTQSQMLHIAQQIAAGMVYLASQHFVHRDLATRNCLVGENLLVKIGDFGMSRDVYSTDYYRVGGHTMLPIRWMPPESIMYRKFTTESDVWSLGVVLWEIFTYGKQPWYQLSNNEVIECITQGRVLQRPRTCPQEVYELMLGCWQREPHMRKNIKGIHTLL
Sequence of Ba/F3 EML4-ALK v1 I1171N (Q9UM73 other isoform, or with tags, fused parts or gaps I1171N): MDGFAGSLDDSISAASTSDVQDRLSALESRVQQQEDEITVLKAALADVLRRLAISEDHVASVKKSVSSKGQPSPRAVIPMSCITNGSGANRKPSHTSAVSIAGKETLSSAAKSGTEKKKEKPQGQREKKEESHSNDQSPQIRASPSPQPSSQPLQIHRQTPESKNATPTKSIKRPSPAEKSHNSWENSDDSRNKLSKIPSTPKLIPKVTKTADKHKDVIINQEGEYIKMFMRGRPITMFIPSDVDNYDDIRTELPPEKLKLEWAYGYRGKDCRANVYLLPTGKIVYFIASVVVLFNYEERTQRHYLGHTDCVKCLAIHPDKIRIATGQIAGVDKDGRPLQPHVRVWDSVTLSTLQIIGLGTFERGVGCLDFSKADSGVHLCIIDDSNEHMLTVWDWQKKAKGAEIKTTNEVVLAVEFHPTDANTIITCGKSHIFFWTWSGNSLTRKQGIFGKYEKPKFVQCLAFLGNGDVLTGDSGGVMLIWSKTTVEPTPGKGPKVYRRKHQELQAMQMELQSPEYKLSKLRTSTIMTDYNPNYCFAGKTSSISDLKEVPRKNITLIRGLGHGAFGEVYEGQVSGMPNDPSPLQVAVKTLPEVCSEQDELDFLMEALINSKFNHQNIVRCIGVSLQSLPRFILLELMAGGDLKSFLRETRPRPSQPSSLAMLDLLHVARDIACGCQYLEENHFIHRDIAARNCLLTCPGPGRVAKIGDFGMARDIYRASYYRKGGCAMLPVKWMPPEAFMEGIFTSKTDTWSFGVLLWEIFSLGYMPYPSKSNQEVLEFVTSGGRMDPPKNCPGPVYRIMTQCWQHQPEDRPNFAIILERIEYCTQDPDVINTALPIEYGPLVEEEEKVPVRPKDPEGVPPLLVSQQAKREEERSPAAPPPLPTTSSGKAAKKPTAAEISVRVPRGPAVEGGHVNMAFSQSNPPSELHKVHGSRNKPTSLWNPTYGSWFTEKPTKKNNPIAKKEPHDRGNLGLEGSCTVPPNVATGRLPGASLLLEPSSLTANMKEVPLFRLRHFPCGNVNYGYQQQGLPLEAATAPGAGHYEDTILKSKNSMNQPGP
Sequence of ALK I1171N/D1203N (Q9UM73 1116-1392 I1171N/D1203N): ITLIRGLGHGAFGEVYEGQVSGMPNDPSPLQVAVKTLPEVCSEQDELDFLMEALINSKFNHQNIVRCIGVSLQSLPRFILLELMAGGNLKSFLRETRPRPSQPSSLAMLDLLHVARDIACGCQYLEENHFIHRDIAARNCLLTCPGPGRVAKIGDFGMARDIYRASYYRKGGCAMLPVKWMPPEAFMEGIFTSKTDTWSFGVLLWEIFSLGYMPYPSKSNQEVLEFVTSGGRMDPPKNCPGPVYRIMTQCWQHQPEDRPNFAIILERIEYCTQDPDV
Sequence of Ba/F3 EML4-ALK v1 I1171N/D1203N (Q9UM73 other isoform, or with tags, fused parts or gaps I1171N/D1203N): as the sequence (Q9UM73 other isoform, or with tags, fused parts or gaps I1171N) above, with D642N counted along it
Sequence of ROS1 (P08922 1945-2222): as the sequence (P08922 1945-2222 G2032R) above, with R88G counted along it

SMILES | pKi (ROS1) | pKi (ROS1-G2032R) | pKi (ALK I1171N/D1203N) | pKi (TRKB-wt) | pIC50 (Ba/F3 EML4-ALK v1 I1171N) | pIC50 [1] | pIC50 (Ba/F3 ETV6-TRKB) | ETV6-TRKB / EML4-ALK v1 I1171N (Ba/F3 EML4-ALK v1 I1171N) | ETV6-TRKB / EML4-ALK v1 I1171N/D1203N [1, 2] | Selectivity for Ba/F3 EML4-ALK v1 I1171N-D1203N IC50 over Ba/F3 ETV6-TRKB IC50 ([1]; TRKB selectivity, ratio of Ba/F3 IC50 values, Table 6 bins)
Cc1nc2c(s1)Cc1c(c(C#N)nn1C(=O)N(C)C)-c1cnc(N)c(c1)O[C@H](C)c1cc(F)ccc1-2 [Example 58, N,N-dimethyl-(R)-22-amino-3-cyano-16-fluoro-10,19-dimethyl-20-oxa-9-thia-4,5,11,23-tetraazapentacyclo[19.3.1.0^2,^6.0^8,^12.0^13,^18]pentacosa-1(24),2(6),3,8(12),10,13,15,17,21(25),22-decaene-5-carboxamide] | > 7.30 | > 7.30 | > 7.30 | 6.30 to 7.30 | 7.30 to 10.00 | 6.30 to 7.30 | < 6.30 | A (bin A for very high selectivity, ratio≥30-fold) | C (bin C for moderate selectivity, ratio≥1 but<10) | –
C[C@H]1Oc2cc(cnc2N)-c2c(c(C(=O)N3CCC3)nn2CC2CC2)Cc2cn(C)nc2-c2ccc(F)cc21 [Example 9, {(R)-22-amino-3-(cyclopropylmethyl)-16-fluoro-10-methyl-19-methyl-20-oxa-3,4,10,11,23-pentaazapentacyclo[19.3.1.0^2,^6.0^8,^12.0^13,^18]pentacosa-1(24),2(6),4,8,11,13,15,17,21(25),22-decaen-5-yl}(1-azetidinyl)methanone] | > 7.30 | > 7.30 | > 7.30 | 6.30 to 7.30 | – | 6.30 to 7.30 | < 6.30 | – | B (bin B for high selectivity, ratio≥10-fold but<30) | –
C[C@H]1Oc2cc(cnc2N)-c2c(c(C(=O)N(C)C)nn2CC2CC2)Cc2cccnc2-c2ccc(F)cc21 [Example 10, N,N-dimethyl-(R)-23-amino-3-(cyclopropylmethyl)-17-fluoro-20-methyl-21-oxa-3,4,12,24-tetraazapentacyclo[20.3.1.0^2,^6.0^8,^13.0^14,^19]hexacosa-1(25),2(6),4,8(13),9,11,14,16,18,22(26),23-undecaene-5-carboxamide] | – | – | > 7.30 | 6.30 to 7.30 | 7.30 to 10.00 | 7.30 to 10.00 | < 6.30 | A (bin A for very high selectivity, ratio≥30-fold) | A (bin A for very high selectivity, ratio≥30-fold) | –
CCn1nc(C#N)c2c1-c1cnc(N)c(c1)O[C@H](C)c1cc(F)ccc1-c1nn(C)cc1C2 [Example 4, (R)-22-amino-3-ethyl-16-fluoro-10-methyl-19-methyl-20-oxa-3,4,10,11,23-pentaazapentacyclo[19.3.1.0^2,^6.0^8,^12.0^13,^18]pentacosa-1(24),2(6),4,8,11,13,15,17,21(25),22-decaene-5-carbonitrile] | > 7.30 | > 7.30 | – | – | 6.30 to 7.30 | < 6.30 | 6.30 to 7.30 | C (bin C for moderate selectivity, ratio≥1 but<10) | D (bin D for low selectivity, ratio<1) | –

The next lines start with results.

pKi (ROS1) | pKi (ROS1-G2032R) | pKi (ALK I1171N/D1203N) | pKi (TRKB-wt) | pIC50 (Ba/F3 EML4-ALK v1 I1171N) | pIC50 [1] | pIC50 (Ba/F3 ETV6-TRKB) | SMILES | ETV6-TRKB / EML4-ALK v1 I1171N (Ba/F3 EML4-ALK v1 I1171N) | ETV6-TRKB / EML4-ALK v1 I1171N/D1203N [1, 2] | Selectivity for Ba/F3 EML4-ALK v1 I1171N-D1203N IC50 over Ba/F3 ETV6-TRKB IC50 ([1]; TRKB selectivity, ratio of Ba/F3 IC50 values, Table 6 bins)
> 7.30 | 6.30 to 7.30 | > 7.30 | 6.30 to 7.30 | 7.30 to 10.00 | 7.30 to 10.00 | 6.30 to 7.30 | C[C@H]1Oc2cc(cnc2N)-c2c(nn(C)c2C#N)C(=O)c2cccnc2-c2ccc(F)cc21 [Example 49, (R)-23-amino-17-fluoro-4-methyl-20-methyl-7-oxo-21-oxa-4,5,12,24-tetraazapentacyclo[20.3.1.0^2,6.0^8,13.0^14,19]hexacosa-1(25),2,5,8(13),9,11.14,16,18,22(26),23-undecaene-3-carbonitrile] | A (bin A for very high selectivity, ratio≥30-fold) | A (bin A for very high selectivity, ratio≥30-fold) | AA (bin AA for the selectivity with the ratio≥30-fold)
– | – | > 7.30 | ≤ 6.30 | 6.30 to 7.30 | 7.30 to 10.00 | < 6.30 | C[C@H]1Oc2cc(cnc2N)-c2c(c(C(=O)N(C)C)nn2CC2CC2)Cc2cccnc2-c2c(F)cc(F)cc21 [Example 45, N,N-dimethyl-(R)-23-amino-3-(cyclopropylmethyl)-15,17-difluoro-20-methyl-21-oxa-3,4,12,24-tetraazapentacyclo[20.3.1.0^2,^6.0^8,^13.0^14,^19]hexacosa-1(25),2(6),4,8(13),9,11,14,16, 18,22(26),23-undecaene-5-carboxamide] | B (bin B for high selectivity, ratio≥10-fold but<30) | A (bin A for very high selectivity, ratio≥30-fold) | –
– | – | > 7.30 | 6.30 to 7.30 | 7.30 to 10.00 | 7.30 to 10.00 | < 6.30 | C[C@H]1Oc2cc(cnc2N)-c2c(c(C(=O)N(C)C)nn2C2CCC2)Cc2cn(C)nc2-c2ccc(F)cc21 [Example 35, N,N-dimethyl-(R)-22-amino-3-cyclobutyl-16-fluoro-10-methyl-19-methyl-20-oxa-3,4,10,11,23-pentaazapentacyclo[19.3.1.0^2,^6.0^8,^12.0^13,^18]pentacosa-1(24),2(6),4,8,11,13,15,17,21(25),22-decaene-5-carboxamide] | A (bin A for very high selectivity, ratio≥30-fold) | A (bin A for very high selectivity, ratio≥30-fold) | –
– | – | > 7.30 | ≤ 6.30 | 7.30 to 10.00 | 7.30 to 10.00 | < 6.30 | C[C@H]1Oc2cc(cnc2N)-c2c(c(C(=O)N(C)C)nn2CC2CC2)Cc2cn(C)nc2-c2c(F)cc(F)cc21 [Example 32, N,N-dimethyl-(R)-22-amino-3-(cyclopropylmethyl)-14,16-difluoro-10-methyl-19-methyl-20-oxa-3,4,10,11,23-pentaazapentacyclo[19.3.1.0^2,^6.0^8,^12.0^13,^18]pentacosa-1(24),2(6),4,8,11,13,15,17,21(25),22-decaene-5-carboxamide] | A (bin A for very high selectivity, ratio≥30-fold) | A (bin A for very high selectivity, ratio≥30-fold) | –
> 7.30 | > 7.30 | – | – | 6.30 to 7.30 | < 6.30 | – | C[C@H]1Oc2cc(cnc2N)-c2c(c(C#N)nn2CC2CC2)Cc2cccnc2-c2ccc(F)cc21 [Example 66, (R)-23-amino-3-(cyclopropylmethyl)-17-fluoro-20-methyl-21-oxa-3,4,12,24-tetraazapentacyclo[20.3.1.0^2,^6.0^8,^13.0^14,^19]hexacosa-1(25),2(6),4,8(13),9,11,14,16,18,22(26),23-undecaene-5-carbonitrile] | – | – | –
